Consider three compounds from US8586291B2 (priority 2001, dated 2013).

One assay relates to v-Src versus c-Src. As to conditions: cited from earlier work.
For assay [1], the system named is Ba/F3 + IL-3 (BCR-ABL-negative parental cells). Description: Growth inhibition, viable cells by trypan blue dye exclusion. The class given is cell-based, murine. The conditions noted are these: Mus musculus, BaF3, concentration reducing number of viable cells by 50%, read-out: MEAN IC50 ± S.D.
A further assay deals with Ba/F3 P210 WT. The assay is described as above. As to conditions: Mus musculus, BaF3, concentration reducing number of viable cells by 50%, read-out: MEAN IC50 ± S.D. The class given is cell-based, murine.
A further assay concerns Ba/F3 P210 T315I. The description is as above. Format: cell-based, murine. The conditions noted are these: Mus musculus, BaF3, concentration reducing number of viable cells by 50%, read-out: MEAN IC50 ± S.D.
The test system of the next assay is Ba/F3 P210 E255K. The description is as above. The class given is cell-based, murine. As to conditions: Mus musculus, BaF3, concentration reducing number of viable cells by 50%, read-out: MEAN IC50 ± S.D.
Assay [2] concerns wild-type BCR-ABL-expressing Ba/F3 cells. Description: CRKL phosphorylation, western blot and densitometry. The class given is cell-based, murine. The conditions noted are these: 24 hours.
In assay [3] the test system is T315I BCR-ABL-expressing Ba/F3 cells. The assay is described as above. The class given is cell-based, murine. As to conditions: 24 hours.
The test system of assay [4] is E255K BCR-ABL-expressing Ba/F3 cells. The description is as above. As to conditions: 24 hours. Format: cell-based, murine.
Another assay concerns wild-type BCR-ABL. The assay can be described thus: BCR-ABL protein degradation, anti-ABL western blot in Ba/F3 cells. As to conditions: 24 hours.
The next assay deals with T315I BCR-ABL. The description is as above. As to conditions: 24 hours.
The next assay relates to E255K BCR-ABL. The assay is described as above. The conditions noted are these: 24 hours.

Take `Cc1ccc(-c2nn(C(C)(C)C)c3ncnc(N)c23)cc1` [PP1]: the “fold resistance of v-Src versus c-Src to kinase inhibition” value with v-Src versus c-Src was “approximately 50 fold”.

As usually defined, the IC50 is the concentration at which inhibition is half-maximal. `C=CCNC1=C2C[C@@H](C)C[C@H](OC)[C@H](O)[C@@H](C)/C=C(\C)[C@H](OC(N)=O)[C@@H](OC)/C=C\C=C(/C)C(=O)NC(=CC1=O)C2=O` [17-AAG, 17-allylaminogeldanamycin]: the IC50 was determined as 12.4 ± 0.3 µM in assay [1], 5.2 ± 2.4 µM with Ba/F3 P210 WT, 2.3 ± 0.4 µM with Ba/F3 P210 T315I and 1 ± 0.2 µM in the assay with Ba/F3 P210 E255K. The “concentration at which significant changes in CRKL phosphorylation were observed” value in [2] is 5.0 µM. The “concentration at which CRKL phosphorylation was significantly inhibited” value in [3] and in assay [4] was 0.5 µM in each case. In addition, the “concentration at which BCR-ABL protein levels decrease” value in the assay on wild-type BCR-ABL is 0.5 to 1.0 µM; in the assay with T315I BCR-ABL it was 0.5 µM; in the assay with E255K BCR-ABL, 0.5 µM. Also, the “concentration at which virtually no BCR-ABL protein was detectable” value with T315I BCR-ABL and in the assay on E255K BCR-ABL was 1.0 µM throughout.

On to `COC1=C2C[C@@H](C)C[C@H](OC)[C@H](O)[C@@H](C)/C=C(\C)[C@H](OC(N)=O)[C@@H](OC)/C=C\C=C(/C)C(=O)NC(=CC1=O)C2=O` [GA, Geldanamycin], for which the IC50 was determined as 27.3 ± 14.1 µM in assay [1], 4.9 ± 1.6 µM in the assay on Ba/F3 P210 WT, 1.8 ± 2.1 µM in the assay with Ba/F3 P210 T315I and 2.6 ± 2.4 µM in the assay with Ba/F3 P210 E255K. The “concentration at which BCR-ABL protein levels decrease” value in the assay on wild-type BCR-ABL turned out to be 1.0 µM; in the assay on T315I BCR-ABL, 0.5 µM; in the assay with E255K BCR-ABL, 0.5 µM.
